Data: patent US5219841A, “Treatment of arrhythmia by administration of Ap4 A” (Fujirebio, Inc., priority 1989, dated 1993)
“Also recorded” adds a separate entry of the source.

How the values were obtained:
[1] = tested on: ADP-induced platelet aggregation; test: ADP-induced platelet aggregation in platelet-rich plasma; type: cell-based, rabbit; details: ADP 5 μM
Procedure: Blood was collected from the carotid artery of an unanesthetized rabbit into a syringe containing one volume of 3.8% sodium citrate per nine volumes of blood. The citrated blood was centrifuged at 1100 rpm for 15 minutes, and the supernatant was obtained as platelet-rich plasma (PRP). To 200 μl of PRP in an aggregometer, 10 μl of ATP or Ap4 A solution was added and the mixture was incubated at 37° C. for 10 minutes, followed by addition of 10 μl of 0.1 mM ADP solution (final concentration: 5μM) to induce and measure the aggregation of platelets. Results obtained for ATP are shown in FIG. 5A and those for Ap4 A in FIG. 5B.

rabbit mesenteric artery = details: Busse et al. 1988; cited from earlier work
guinea pig heart = test: Coronary vasodilative effect, Langendorff perfusion of isolated heart
Procedure: An experiment was performed by a modification of the method of Aronson and Serlick [Toxicol. Appl. Pharmac., 38, 479-488 (1976) and 39, 157-176 (1977); Biochem. Pharmac. 26, 2297-2305 (1977)]. The guinea pig heart removed was started perfusing at the origin of the aorta by the Langendorff perfusion method. Perfusion was carried out at 37° C. and 14 ml/min of flow rate with a peristalic pump (TAIYO TYPE 1500N; Japan) in Krebs-Henseleit solution (KH: NaCl, 118 mM; phosphate, 1.2 mM; NaHCO3, 25 mM; glucose, 10 mM; KCl, 4.7 mM; CaCl2, 2.5 mM; and MgSO4, 1.2 mM; pH 7.4; bubbling with 95% O2 - 5% CO2). After the initiation of the perfusion, an incision was made in the left auricle and a cannula was inserted into the left ventricle via the left atrium to measure the left ventricular pressure with a pressure transducer (Nihon Kohden Co.; Model TP-200T). The differential value of the left ventricular pressure (dp/dt) was measured with a cardiotachometer (Nihon Kohden Co.; Model AT-601G). The perfusion pressure was determined with a pressure transducer connected to the aortic cannula. Ap4 A was dissolved in KH at various concentrations and administered to the perfusion system in a single dose of 1-100 μg/0.1 ml/5 sec or by a continuous infusion of 1-100 μg/5ml/15 min.

[2] = tested on: adrenaline-induced cardiac arrhythmia; test: Adrenaline-induced arrhythmia model; type: in vivo, guinea pig
Procedure: With a guinea pig (b.w. 450 g) placed under urethane anesthesia (1.1 g/kg), its femoral vein, jugular vein and carotid artery were cannulated. Ap4 A, ATP or propranolol was injected into the femoral vein and adrenaline into the jugular vein through each cannula, while the carotid artery was utilized for a blood pressure monitoring. Changes associated with the administration of the drug were monitored in the same manner as above (B), and ECG was recorded in accordance with the lead II.
Adrenaline-induced cardiac arrhythmia model was prepared by injecting adrenaline (10 μg/kg) into the jugular vein over 5 seconds. Each drug was administered by intravenous infusion over a period of 5 minutes at the following dose: ATP, 3 or 10 mg/kg; Ap4 A, 3 or 10 mg/kg; propranolol, 1 mg/kg. Adrenaline was administered in a single dose 4 minutes after administration of the drug tested. The grading of arrhythmia was assessed in terms of the incidence of extrasystole.

hepatocytes = details: Rapaport and Zamecnick 1976; cited from earlier work
platelet aggregation = test: Platelet aggregation by the drug itself in absence of ADP; type: cell-based, rabbit
[3] = tested on: ouabain-induced cardiac arrhythmia; test: Ouabain-induced arrhythmia model; type: in vivo, guinea pig
Procedure: With a guinea pig (b.w. 450 g) placed under urethane anesthesia (1.1 g/kg), its femoral vein, jugular vein and carotid artery were cannulated. Ap4 A, ATP or disopyramide was injected into the femoral vein and ouabain into the jugular vein through each cannula, while the carotid artery was utilized for a blood pressure monitoring. Changes associated with the administration of the drug were assessed by monitoring electrocardiogram (ECG), blood pressure, mean blood pressure and heart rate (Nihon Kohden Co.; Models AB620G, AP601G and AT601G). ECG was recorded in accordance with the lead II.
Ouabain-induced cardiac arrhythmia model was prepared by continuous infusion of ouabain at a rate of 7 μg/kg/min via the jugular vein. Each drug was administered by intravenous infusion over a period of 5 minutes at the following dose: ATP, 10 or 30 mg/kg; Ap4 A, 30 mg/kg; and disopyramide, 5 mg/kg. The drug was administered simultaneously with the infusion of ouabain. The antiarrhythmic effect of the drug tested was assessed in terms of the total dose of ouabain given until onset of each of the following parameters: P-P interval prolongation, T-P overlapping, ventricular arrhythmia, ventricular fibrillation and cardiac arrest.

[4] = Half lethal dose, Lichfield-Wilcoxon method; details: in vivo, iv, rat
Excerpt: Ap4 A is a novel type of nucleotide discovered in human platelets in a recent year and has the following chemical structure: [drawing 1] The active ingredient Ap4 A of the pharmaceutical composition according to the present invention is thus preferably in a form of a pharmaceutically acceptable salt thereof such as sodium salt, or it may be in a form of free acid thereof. Ap4 A can be produced by a conventional organic synthesis or by an enzymatic synthesis with, for example, leucyl tRNA synthetase derived from thermophilic Bacillus stearothermoohillus (Japanese Patent Application Laid-Open (KOKAI) No. 62-278992; U.S. Pat. NO. 4886749; EP-A-247819), using ATP as the starting material in either method. […] J. Physiol., 254, 828-832 (1988)].

[5] = tested on: baby hamster kidney cells; details: Grummt 1978; cited from earlier work
guinea pig right atrium = test: Effect on heart rate of isolated guinea pig right atrium
Procedure: A guinea pig (b.w. 450 g) was stunned and was immediately removed its heart to excise the right atrium therefrom. The right atrium was then suspended in a Magnus tube (30 ml) filled with Krebs-Henseleit (KH) solution which was maintained at 31° C. constantly aerating with a mixture of 95% O2 --5% CO2 therein. After the KH solution was changed with the fresh one at 15-minutes intervals and the heart rate of the right atrium was stabilized in 60-90 minutes, Ap4 A or ATP which was prepared at different concentrations was added to the KH solution in a single dose to determine the change of heart rate. Drug concentrations of 10^-4, 10^-5, 10^-6 and 10^-7 M were employed in this experiment. The heart rate was determined with a cardiotachometer (Nihon Kohden Co.; Model AT601G; Japan) and an isometric converter (Nihon Kohden Co.; Model TB-651T), with a 1-g weight load.

[6] = tested on: adenosine diphosphate (ADP)-stimulated human platelet aggregation; details: Luthje and Ogiluie 1984; cited from earlier work
[7] = single dose 1-100 μg/0.1 ml/5 sec

SMILES: Nc1ncnc2c1ncn2[C@@H]1O[C@H](COP(=O)(O)OP(=O)(O)OP(=O)(O)OP(=O)(O)OC[C@H]2O[C@@H](n3cnc4c(N)ncnc43)[C@H](O)[C@@H]2O)[C@@H](O)[C@H]1O [Ap4 A, diadenosine 5',5'''-P^1,P^4 -tetraphosphate]
- inhibition of ADP-induced platelet aggregation ([1]; 3×10^-5 M to 3×10^-4 M, in words): markedly inhibited ADP-induced platelet aggregation with a dose-dependency; also recorded: inhibited by Ap4 A with a dose-dependency
- inhibition at 300 µM ([1]; Oryctolagus cuniculus, Platelet, 3×10^-4 M, rabbit PRP, 37° C., 10 min preincubation, vs control): 76%
- inhibition at 30 µM ([1]; Oryctolagus cuniculus, Platelet, 3×10^-5 M, rabbit PRP, 37° C., 10 min preincubation, vs control): 21%
- vasodilative action (rabbit mesenteric artery): vasodilative action
- perfusion pressure and left ventricular pressure (guinea pig heart; continuous infusion 1-100 μg/5ml/15 min): the perfusion pressure and the left ventricular pressure decreased depending on the dose of Ap4 A
- dose showing coronary vasodilative effect without affecting heart rate or left ventricular pressure (guinea pig heart; e.g.): 1 µg
- heart rate (guinea pig heart; [7]): marked decrease of heart rate
- left ventricular pressure (guinea pig heart; [7]): fell transiently after administration and subsequently it was elevated
- perfusion pressure (guinea pig heart; [7]): dose-dependent fall of perfusion pressure; also recorded: observed from the lowest dose of Ap4 A
- perfusion pressure (coronary vasodilative activity) (guinea pig heart; single or continuous dose): the perfusion pressure decreased depending on the dose
- incidence of extrasystole ([2]; 10 mg/kg/5min i.v., adrenaline 10 μg/kg, control value 39%): 8.0%
- antiarrhythmic effect (reduction of incidence of extrasystole) ([2]; i.v. infusion over 5 min: ATP 3 or 10 mg/kg, Ap4 A 3 or 10 mg/kg, propranolol 1 mg/kg): reduced the incidence of extrasystole with a dose-dependency; also recorded: dose-dependent reduction of the incidence of extrasystole
- antiarrhythmic effect compared with ATP ([2]; i.v., incidence of extrasystole): somewhat inferior to that of ATP; also recorded: somewhat weaker than that of ATP
- growth of hepatocytes (hepatocytes): promotion of the growth of hepatocytes
- platelet aggregation by the drug itself (platelet aggregation; 3×10^-5 M or more, absence of ADP): did not cause platelet aggregation at all
- platelet aggregation by the drug itself (platelet aggregation; even at 3×10^-4 M): no activity of platelet aggregation; also recorded: no effect of the platelet aggregation
- antiarrhythmic effect compared with ATP ([3]; 30 mg/kg i.v., same dose of ATP): practically the same as that of ATP, or slightly lower; also recorded: virtually comparable with or slightly inferior to that of ATP
- antiarrhythmic effect: onset of P-P interval prolongation, T-P overlapping, ventricular arrhythmia, ventricular fibrillation and cardiac arrest ([3]; i.v. infusion over 5 min: ATP 10 or 30 mg/kg, Ap4 A 30 mg/kg, disopyramide 5 mg/kg, ouabain 7 μg/kg/min): inhibited the onsets of such parameters as P-P interval prolongation, T-P overlapping, ventricular arrhythmia, ventricular fibrillation and cardiac arrest; also recorded: inhibited all these parameters
- LD50 [4]: 102 mg/kg
- DNA synthesis [5]: enhancement of DNA synthesis
- relative potency vs ATP (change of heart rate) (guinea pig right atrium; 10^-4 M): 2.1 -fold
- relative potency vs ATP (change of heart rate) (guinea pig right atrium; 10^-5 M): 1.5 -fold
- relative potency vs ATP (change of heart rate) (guinea pig right atrium; 10^-6 M): 1.5 -fold
- potency compared with ATP (percent change of heart rate) (guinea pig right atrium; in words): prone to be more potent than ATP; also recorded: tends to be greater than that of ATP
- change of heart rate (bradycardic effect) (guinea pig right atrium; single dose, 10^-7 to 10^-4 M, KH solution, 31° C.): reduced the heart rate with a dose-dependency; also recorded: decreased the atrial heart rate with a dose-dependency
- effect on ADP-stimulated human platelet aggregation [6]: inhibitory effect
